Assay results reported in ChEMBL document CHEMBL1201862, “PubChem BioAssay data set” (2004).
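Following 48 hours of exposure in 96-well plates, responses at five concentrations were used to interpolate endpoints linearly. The concentration for 50% growth inhibition is given as GI50.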 Calls of active or inactive are those of the source. No stated cut-off is given here; in the data, active = GI50 up to about 1.1 µM and inactive = higher.

How the values were obtained:
Experiment in all cases: NCI-60 cell line screen, 48 h
786-0 = test system: 786-0
A498 = test system: A498
ACHN = test system: ACHN
HOP-62 = test system: HOP-62
HOP-92 = test system: HOP-92
IGROV-1 = test system: IGROV-1
LOX IMVI = test system: LOX IMVI
M14 = test system: M14
MDA-N = test system: MDA-N
NCI-H226 = test system: NCI-H226
OVCAR-5 = test system: OVCAR-5
PC-3 = test system: PC-3
RXF 393 = test system: RXF 393
SF-295 = test system: SF-295
SF-539 = test system: SF-539
SNB-75 = test system: SNB-75
SR = test system: SR
SW-620 = test system: SW-620
UACC-62 = test system: UACC-62
UO-31 = test system: UO-31

Row | Structure (SMILES) | GI50 (786-0) | GI50 (A498) | GI50 (ACHN) | GI50 (HOP-62) | GI50 (HOP-92) | GI50 (IGROV-1) | GI50 (LOX IMVI) | GI50 (M14) | GI50 (MDA-N) | GI50 (NCI-H226) | GI50 (OVCAR-5) | GI50 (PC-3) | GI50 (RXF 393) | GI50 (SF-295) | GI50 (SF-539) | GI50 (SNB-75) | GI50 (SR) | GI50 (SW-620) | GI50 (UACC-62) | GI50 (UO-31)
1 | CN(C)Cc1cc(/N=N/c2ccc(Cl)cc2)ccc1O | 12.8 µM (inactive) | 16.4 µM (inactive) | 15.3 µM (inactive) | 10.1 µM (inactive) | 4.46 µM (inactive) | 15.8 µM (inactive) | 11.4 µM (inactive) | 9.75 µM (inactive) | 19.5 µM (inactive) | 14.6 µM (inactive) | 12.1 µM (inactive) | 14.7 µM (inactive) | 13.9 µM (inactive) | 16.5 µM (inactive) | 18.1 µM (inactive) | 14.9 µM (inactive) | 16.4 µM (inactive) | 16.4 µM (inactive) | 16 µM (inactive) | 11.7 µM (inactive)
2 | CCOc1cc(NC(C)=O)ccc1C(=O)NNC(=O)c1ccccc1OC(C)=O | 4.53 µM (inactive) | 16.1 µM (inactive) | 3.79 µM (inactive) | 8.61 µM (inactive) | 29.9 µM (inactive) | 3.03 µM (inactive) | 5.45 µM (inactive) | 7.18 µM (inactive) | 12.5 µM (inactive) | 5.19 µM (inactive) | 10.2 µM (inactive) | 11.1 µM (inactive) | 3.41 µM (inactive) | 8.36 µM (inactive) | 12.5 µM (inactive) | 8.05 µM (inactive) | 1.05 µM (active) | 4.01 µM (inactive) | 8.36 µM (inactive) | 3.86 µM (inactive)
3 | O=C(CSc1nc2ccc(I)cc2c(=O)n1Cc1ccccc1)NNC(=O)c1ccccc1 | 8.97 µM (inactive) | 11.6 µM (inactive) | 17.7 µM (inactive) | 8.02 µM (inactive) | 8.24 µM (inactive) | 9.27 µM (inactive) | 22.5 µM (inactive) | 29.3 µM (inactive) | 25.1 µM (inactive) | 3.78 µM (inactive) | 16 µM (inactive) | 10.7 µM (inactive) | 4.73 µM (inactive) | 11.4 µM (inactive) | 2.92 µM (inactive) | 2.38 µM (inactive) | 11.5 µM (inactive) | 36.1 µM (inactive) | 14.2 µM (inactive) | 1.15 µM (inactive)
4 | Nc1cccc(C2CCCc3c2[nH]c2ccccc32)c1 (stereo not given) | 18.2 µM (inactive) | 15 µM (inactive) | 25 µM (inactive) | 30.5 µM (inactive) | 16.9 µM (inactive) | 17.3 µM (inactive) | 12.4 µM (inactive) | 22.3 µM (inactive) | 17.5 µM (inactive) | 25.7 µM (inactive) | 16.3 µM (inactive) | 16.1 µM (inactive) | 15.3 µM (inactive) | 20.8 µM (inactive) | 20.3 µM (inactive) | 11.9 µM (inactive) | 9.08 µM (inactive) | 17.4 µM (inactive) | 15.6 µM (inactive) | 26 µM (inactive)
5 | Cc1ccc(C(=O)N/N=C(\N=N\c2cccc(Cl)c2)c2ccc(N(CCC#N)CCC#N)cc2C)cc1 | 82 µM (inactive) | > 100 µM (inactive) | > 100 µM (inactive) | > 100 µM (inactive) | > 100 µM (inactive) | > 100 µM (inactive) | > 100 µM (inactive) | > 100 µM (inactive) | > 100 µM (inactive) | > 100 µM (inactive) | > 100 µM (inactive) | > 100 µM (inactive) | 29.4 µM (inactive) | > 100 µM (inactive) | > 100 µM (inactive) | 75.9 µM (inactive) | > 100 µM (inactive) | > 100 µM (inactive) | > 100 µM (inactive) | > 100 µM (inactive)
6 | COC(=O)/C=C\C(C#N)(C#N)/N=C/c1ccccc1 | 1.63 µM (inactive) | 18.7 µM (inactive) | 2.3 µM (inactive) | 18.5 µM (inactive) | 1.55 µM (inactive) | 12.9 µM (inactive) | 2.32 µM (inactive) | 2.25 µM (inactive) | 4.44 µM (inactive) | 9.55 µM (inactive) | 19 µM (inactive) | 5.94 µM (inactive) | 1.94 µM (inactive) | 18.7 µM (inactive) | 3.78 µM (inactive) | 6.35 µM (inactive) | 0.897 µM (active) | 1.46 µM (inactive) | 14.5 µM (inactive) | 2.42 µM (inactive)
7 | O=C(O)CCCc1ccc(N(CCCl)CCCl)cc1 [CHLORAMBUCIL] | 30.9 µM (inactive) | 125 µM (inactive) | 14.4 µM (inactive) | 36.1 µM (inactive) | 63.7 µM (inactive) | 115 µM (inactive) | 40.3 µM (inactive) | 62.7 µM (inactive) | 117 µM (inactive) | 95.7 µM (inactive) | 97.1 µM (inactive) | 99.3 µM (inactive) | 33.2 µM (inactive) | 39.2 µM (inactive) | 22.9 µM (inactive) | 54 µM (inactive) | 5.98 µM (inactive) | 87.9 µM (inactive) | 20 µM (inactive) | 70.1 µM (inactive)
